ChEMBL document CHEMBL5247642, “Structural Optimization of Fibroblast Growth Factor Receptor Inhibitors for Treating Solid Tumors” (J Med Chem, 2023)
Calls of active or inactive are those of the source. The calls are words filed in the database; no cut-off is given here.

Experiments:
ASPC1 = test: Antiproliferative activity against human ASPC1 cells assessed as reduction in cell viability measured after 72 hrs; format: functional, cell-based; conditions: ASPC1, 72 h
[1] = biological target: T1, Fibroblast growth factor receptor 1 (Homo sapiens, UniProt P11362); conditions: dose 10.0 nM, time 60.0 min
NCI-H526 = test: Antiproliferative activity against human NCI-H526 cells assessed as reduction in cell viability measured after 72 hrs; format: functional, cell-based; conditions: NCI-H526, 72 h
HCC4006 = test: Antiproliferative activity against human HCC4006 cells assessed as reduction in cell viability measured after 72 hrs; format: functional, cell-based; conditions: HCC4006, 72 h
[2] = biological target: Fibroblast growth factor receptor 3 (Homo sapiens, UniProt P22607, V555M); test: Inhibition of FGFR3 V555M mutant (unknown origin)
[3] = biological target: Voltage-gated inwardly rectifying potassium channel KCNH2 (Homo sapiens, UniProt Q12809); test: Inhibition of hERG expressed in CHO cells at -80 mV holding potential by automated patch clamp method; format: toxicity, cell-based
[4] = AUC (0 to infinity) in CD-1 mouse at 3 mg/kg, po measured after 24 hrs by LC-MS/MS analysis; format: ADME, organism-based; set-up: time 24 hrs, dose 3 mg/kg, route po; conditions: in vivo
HCC78 = test: Antiproliferative activity against human HCC78 cells assessed as reduction in cell viability measured after 72 hrs; format: functional, cell-based; conditions: HCC78, 72 h
NCI-H2286 = test: Antiproliferative activity against human NCI-H2286 cells assessed as reduction in cell viability measured after 72 hrs; format: functional, cell-based; conditions: NCI-H2286, 72 h
[5] = biological target: T1, Fibroblast growth factor receptor 1; conditions: dose 1.0 nM, time 60.0 min
[6] = biological target: Fibroblast growth factor receptor 3 (Homo sapiens, UniProt P22607); test: Inhibition of FGFR3 (unknown origin) using Poly (Glu,Tyr) 4:1 as substrate incubated for 60 mins in presence of ATP by ELISA analysis
NCI-H522 = test: Antiproliferative activity against human NCI-H522 cells assessed as reduction in cell viability measured after 72 hrs; format: functional, cell-based; conditions: NCI-H522, 72 h
[7] = Stability in rat whole blood assessed as parent compound remaining measured after 2 hrs by LC-MS/MS analysis; format: ADME, tissue-based; conditions: read-out: Stability
[8] = GSH reactivity in PBS buffer assessed as percentage peak area ratio incubated for 24 hrs by LC-MS/MS analysis; format: physicochemical
[9] = biological target: Fibroblast growth factor receptor (Homo sapiens) (UniProt P22607+P11362+P22455+P21802); test: Inhibition of FGFR signalling in human SNU-16 assessed as inhibition of pErk phosphorylation at 0.1 nM incubated for 2 hrs by Western blot analysis; format: cell-based
BXPC-3 = test: Antiproliferative activity against human BXPC-3 cells assessed as reduction in cell viability measured after 72 hrs; format: functional, cell-based; conditions: BXPC-3, 72 h
[10] = MRT in CD-1 mouse at 1 mg/kg, iv measured after 24 hrs by LC-MS/MS analysis; format: ADME, organism-based; conditions: in vivo
Hs746T = test: Antiproliferative activity against human Hs746T cells assessed as reduction in cell viability measured after 72 hrs; format: functional, cell-based
[11] = biological target: Fibroblast growth factor receptor 2 (Homo sapiens, UniProt P21802); test: Inhibition of FGFR2 (unknown origin) using Poly (Glu,Tyr) 4:1 as substrate incubated for 60 mins in presence of ATP by ELISA analysis
[12] = Tmax in CD-1 mouse at 3 mg/kg, po measured after 24 hrs by LC-MS/MS analysis; format: ADME, organism-based; conditions: in vivo
[13] = Half life in CD-1 mouse at 3 mg/kg, po measured after 24 hrs by LC-MS/MS analysis; format: ADME, organism-based; conditions: in vivo
NCI-H1666 = test: Antiproliferative activity against human NCI-H1666 cells assessed as reduction in cell viability measured after 72 hrs; format: functional, cell-based; conditions: NCI-H1666, 72 h
[14] = biological target: Fibroblast growth factor receptor 2 (Homo sapiens, UniProt P21802, N549H); test: Inhibition of human recombinant FGFR2 N549H mutant (456 to 770 residues) using GGEEEEYFELVKK as substrate incubated for 40 mins presence of [gamma-33P]-ATP by radiometric based scintillation counter assay
NCI-H1581 = test: Antitumor activity against human NCI-H1581 cells xenografted in po dosed nude mouse assessed as tumor growth inhibition administered once daily for 11 days by microcaliper analysis; format: functional, organism-based; conditions: dose 200-400 mg/kg, time 11.0 day
[15] = Toxicity in nude mouse xenografted with human SNU-16 cells assessed as body weight loss at 200 to 400 mg/kg, po administered once daily for 21 days; format: organism-based; conditions: in vivo, 504 h, dose 200-400 mg/kg, time 21 day
[16] = biological target: Fibroblast growth factor receptor 2 (Homo sapiens, UniProt P21802, V564F); test: Inhibition of FGFR2 V564F mutant (unknown origin)
[17] = biological target: Vascular endothelial growth factor receptor 2 (Homo sapiens) (UniProt P35968); test: Inhibition of VEGFR2 (unknown origin) at 1 uM using Poly (Glu,Tyr) 4:1 as substrate incubated for 60 mins in presence of ATP by ELISA analysis relative to control
Chain of Vascular endothelial growth factor receptor 2 (Homo sapiens) (P35968 whole entry): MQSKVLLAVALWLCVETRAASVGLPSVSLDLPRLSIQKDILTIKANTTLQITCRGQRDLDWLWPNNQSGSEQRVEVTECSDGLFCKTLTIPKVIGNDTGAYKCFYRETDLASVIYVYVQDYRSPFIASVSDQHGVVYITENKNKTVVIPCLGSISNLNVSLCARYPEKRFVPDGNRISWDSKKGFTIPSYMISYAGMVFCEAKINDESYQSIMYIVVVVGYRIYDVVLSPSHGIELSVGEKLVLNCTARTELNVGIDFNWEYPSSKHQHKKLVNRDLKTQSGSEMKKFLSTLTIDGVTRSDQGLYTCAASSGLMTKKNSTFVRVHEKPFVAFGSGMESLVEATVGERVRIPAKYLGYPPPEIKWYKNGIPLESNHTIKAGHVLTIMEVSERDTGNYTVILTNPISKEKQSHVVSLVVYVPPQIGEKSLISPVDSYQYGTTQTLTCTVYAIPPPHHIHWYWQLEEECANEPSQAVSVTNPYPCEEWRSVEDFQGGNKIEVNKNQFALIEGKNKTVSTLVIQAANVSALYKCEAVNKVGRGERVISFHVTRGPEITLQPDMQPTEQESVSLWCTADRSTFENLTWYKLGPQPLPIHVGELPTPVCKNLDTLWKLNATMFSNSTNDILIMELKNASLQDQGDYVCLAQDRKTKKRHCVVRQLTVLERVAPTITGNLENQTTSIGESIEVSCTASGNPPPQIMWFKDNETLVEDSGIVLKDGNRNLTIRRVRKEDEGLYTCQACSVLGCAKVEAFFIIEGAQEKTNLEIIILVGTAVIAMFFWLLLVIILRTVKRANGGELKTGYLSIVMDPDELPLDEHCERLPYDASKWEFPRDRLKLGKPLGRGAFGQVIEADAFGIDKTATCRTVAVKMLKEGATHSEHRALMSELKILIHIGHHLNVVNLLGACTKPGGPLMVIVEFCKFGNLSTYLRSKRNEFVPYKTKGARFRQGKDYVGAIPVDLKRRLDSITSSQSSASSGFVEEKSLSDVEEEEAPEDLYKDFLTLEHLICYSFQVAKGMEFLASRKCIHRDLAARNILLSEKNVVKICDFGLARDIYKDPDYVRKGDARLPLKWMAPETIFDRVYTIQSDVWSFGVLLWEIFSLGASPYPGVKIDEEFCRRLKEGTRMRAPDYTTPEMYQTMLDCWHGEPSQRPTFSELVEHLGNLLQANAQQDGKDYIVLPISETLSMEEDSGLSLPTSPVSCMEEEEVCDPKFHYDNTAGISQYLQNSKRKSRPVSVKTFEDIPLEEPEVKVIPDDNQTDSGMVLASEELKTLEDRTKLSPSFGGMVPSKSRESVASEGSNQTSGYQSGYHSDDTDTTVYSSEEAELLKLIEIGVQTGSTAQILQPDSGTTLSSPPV

T1 sequence (P11362 22-822 limits assumed): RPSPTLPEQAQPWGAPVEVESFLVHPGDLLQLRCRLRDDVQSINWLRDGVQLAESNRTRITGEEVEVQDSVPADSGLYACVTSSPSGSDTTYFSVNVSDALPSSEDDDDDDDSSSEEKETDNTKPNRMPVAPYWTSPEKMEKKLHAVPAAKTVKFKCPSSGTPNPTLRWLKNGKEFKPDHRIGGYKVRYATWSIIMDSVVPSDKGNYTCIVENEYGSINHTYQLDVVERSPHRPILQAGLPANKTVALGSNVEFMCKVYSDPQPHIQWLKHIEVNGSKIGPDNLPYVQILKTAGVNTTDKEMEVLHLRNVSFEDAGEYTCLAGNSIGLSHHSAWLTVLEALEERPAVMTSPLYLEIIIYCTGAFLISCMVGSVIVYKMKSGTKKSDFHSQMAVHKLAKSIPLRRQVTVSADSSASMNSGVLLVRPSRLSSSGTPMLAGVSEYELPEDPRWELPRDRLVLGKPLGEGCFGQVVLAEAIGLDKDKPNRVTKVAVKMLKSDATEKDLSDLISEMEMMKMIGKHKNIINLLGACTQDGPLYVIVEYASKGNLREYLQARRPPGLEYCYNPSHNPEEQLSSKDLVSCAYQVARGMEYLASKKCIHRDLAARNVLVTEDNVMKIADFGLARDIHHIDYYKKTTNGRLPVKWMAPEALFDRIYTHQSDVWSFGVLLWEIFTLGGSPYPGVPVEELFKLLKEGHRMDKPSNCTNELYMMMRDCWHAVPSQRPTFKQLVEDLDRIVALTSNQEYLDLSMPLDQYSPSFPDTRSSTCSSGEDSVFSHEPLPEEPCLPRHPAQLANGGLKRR
Chain of Fibroblast growth factor receptor 3 (Homo sapiens, UniProt P22607, V555M) (P22607 23-806 V555M limits assumed): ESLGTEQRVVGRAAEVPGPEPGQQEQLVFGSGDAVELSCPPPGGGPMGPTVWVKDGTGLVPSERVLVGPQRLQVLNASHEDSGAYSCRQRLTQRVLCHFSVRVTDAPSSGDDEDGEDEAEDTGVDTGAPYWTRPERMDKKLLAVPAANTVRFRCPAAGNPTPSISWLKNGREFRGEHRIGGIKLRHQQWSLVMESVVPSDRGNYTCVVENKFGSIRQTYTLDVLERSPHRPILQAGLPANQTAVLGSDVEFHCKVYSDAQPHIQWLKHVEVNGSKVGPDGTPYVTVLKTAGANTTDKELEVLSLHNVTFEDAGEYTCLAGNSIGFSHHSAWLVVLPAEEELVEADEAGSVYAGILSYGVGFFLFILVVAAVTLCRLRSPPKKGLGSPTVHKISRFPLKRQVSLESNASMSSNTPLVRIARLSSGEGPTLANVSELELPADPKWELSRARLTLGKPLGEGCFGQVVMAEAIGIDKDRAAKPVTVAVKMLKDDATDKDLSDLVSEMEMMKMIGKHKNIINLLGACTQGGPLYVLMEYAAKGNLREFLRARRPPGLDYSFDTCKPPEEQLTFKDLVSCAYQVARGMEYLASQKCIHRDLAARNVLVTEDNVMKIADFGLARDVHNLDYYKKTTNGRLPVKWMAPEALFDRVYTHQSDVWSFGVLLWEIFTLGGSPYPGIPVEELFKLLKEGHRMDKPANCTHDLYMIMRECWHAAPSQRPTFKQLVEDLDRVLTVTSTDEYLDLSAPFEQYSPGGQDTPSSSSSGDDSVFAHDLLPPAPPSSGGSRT
Chain of Fibroblast growth factor receptor 2 (Homo sapiens, UniProt P21802) (P21802 whole entry): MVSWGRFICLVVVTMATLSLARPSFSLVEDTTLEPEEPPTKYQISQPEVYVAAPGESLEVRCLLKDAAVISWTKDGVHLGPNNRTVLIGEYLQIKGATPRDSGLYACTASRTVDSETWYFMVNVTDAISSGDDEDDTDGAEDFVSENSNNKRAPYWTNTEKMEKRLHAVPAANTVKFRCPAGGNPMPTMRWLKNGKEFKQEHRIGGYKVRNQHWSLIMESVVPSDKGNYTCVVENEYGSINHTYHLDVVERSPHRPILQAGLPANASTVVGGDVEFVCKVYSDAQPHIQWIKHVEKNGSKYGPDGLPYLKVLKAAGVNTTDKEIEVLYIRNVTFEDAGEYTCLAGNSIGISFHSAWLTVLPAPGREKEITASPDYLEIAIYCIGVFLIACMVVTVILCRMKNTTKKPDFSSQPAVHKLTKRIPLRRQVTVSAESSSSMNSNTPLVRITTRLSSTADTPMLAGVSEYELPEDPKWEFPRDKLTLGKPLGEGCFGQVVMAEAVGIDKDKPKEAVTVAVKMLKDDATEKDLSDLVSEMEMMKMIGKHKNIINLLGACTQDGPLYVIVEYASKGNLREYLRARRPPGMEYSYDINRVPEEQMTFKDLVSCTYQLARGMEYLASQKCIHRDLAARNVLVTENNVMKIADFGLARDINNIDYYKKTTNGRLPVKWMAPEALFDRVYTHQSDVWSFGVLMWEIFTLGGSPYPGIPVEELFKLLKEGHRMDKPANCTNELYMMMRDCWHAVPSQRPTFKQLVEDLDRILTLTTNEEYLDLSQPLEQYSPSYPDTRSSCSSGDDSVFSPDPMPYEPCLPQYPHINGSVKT
Chain of Fibroblast growth factor receptor 2 (Homo sapiens, UniProt P21802, N549H) (P21802 22-821 N549H limits assumed): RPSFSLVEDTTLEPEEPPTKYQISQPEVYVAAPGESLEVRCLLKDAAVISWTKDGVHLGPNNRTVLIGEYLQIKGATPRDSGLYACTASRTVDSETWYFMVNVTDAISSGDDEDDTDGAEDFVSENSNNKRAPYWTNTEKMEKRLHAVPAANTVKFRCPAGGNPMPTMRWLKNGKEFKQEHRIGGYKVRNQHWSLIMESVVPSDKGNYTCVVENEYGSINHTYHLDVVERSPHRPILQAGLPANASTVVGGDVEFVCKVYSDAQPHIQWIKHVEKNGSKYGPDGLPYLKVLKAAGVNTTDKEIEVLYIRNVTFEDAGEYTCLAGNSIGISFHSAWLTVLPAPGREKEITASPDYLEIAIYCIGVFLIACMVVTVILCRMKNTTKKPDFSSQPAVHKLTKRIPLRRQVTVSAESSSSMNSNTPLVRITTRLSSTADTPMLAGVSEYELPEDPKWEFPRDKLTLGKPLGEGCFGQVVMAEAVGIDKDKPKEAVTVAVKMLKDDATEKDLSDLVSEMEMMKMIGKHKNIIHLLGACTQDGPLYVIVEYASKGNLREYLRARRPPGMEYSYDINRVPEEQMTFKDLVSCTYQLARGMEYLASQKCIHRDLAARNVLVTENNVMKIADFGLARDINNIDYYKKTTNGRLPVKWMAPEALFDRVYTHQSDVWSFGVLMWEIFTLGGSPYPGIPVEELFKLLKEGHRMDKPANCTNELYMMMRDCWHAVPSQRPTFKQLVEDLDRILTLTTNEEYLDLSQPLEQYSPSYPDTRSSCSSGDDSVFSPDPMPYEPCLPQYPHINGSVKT
Chain of Fibroblast growth factor receptor 2 (Homo sapiens, UniProt P21802, V564F) (P21802 22-821 V564F limits assumed): as the sequence (P21802 22-821 N549H limits assumed) above, with H528N, V543F counted along it

`C=CC(=O)N1CCCC(n2nc3c(=O)[nH]nc(N)c3c2-c2oc3ccc(C)cc3c2C)C1` (configuration not stated) showed an IC50 (ASPC1) of over 10 µM, an inhibition [1] of 80.9% and an IC50 (NCI-H526) of over 10 µM. For the same molecule, the IC50 (HCC4006) was over 10 µM, the IC50 [2] was 2 µM and the IC50 [3] was 17.2 µM. It also gave an AUC(0-inf) [4] of 75.4 ng·h/mL, an IC50 (HCC78) of over 10 µM and an IC50 (NCI-H2286) of over 10 µM. For the same molecule, the inhibition [5] was 37.6%, the IC50 [6] was 0.0526 µM and the IC50 (NCI-H522) was over 10 µM. For the same molecule, the remaining at 2 h [7] was over 40%, the Activity [8] was 65% and the inhibition [9] was “Active”. The IC50 (BXPC-3) was over 10 µM, the MRT [10] was 15.1 min and the IC50 (Hs746T) was over 10 µM. It also gave an IC50 [11] of 0.0136 µM, a Tmax [12] of 15 min and a half-life [13] of 55.9 min. For the same molecule, the IC50 (NCI-H1666) was over 10 µM, the IC50 [14] was 0.016 µM and the Activity (NCI-H1581) was “Dose-Dependent Effect”. The Activity [15] was “Non-Toxic”, the IC50 [16] was 2.86 µM and the inhibition [17] was under 50%.
